Reference: patent US10016382B2, “Method for decreasing skeletal muscle damage and/or oxidative stress in mammals” (LONZA INC., priority 2014, dated 2018)

What was measured:
[1] = Food offered and food consumption (per day, per kg BW, per kg lean mass), Example 2 part one; format: in vivo, dog
Procedure: The performance dogs were weighed at the beginning of the study and at one week intervals until the end of part one. Feed consumption and refusals were determined daily by weighing and recording the amount offered or refused. The quantity of food provided to each dog on a daily basis was adjusted based on the goal of maintaining the dog's minimum body weight throughout the study. The consumption per kg of lean mass was determined by dividing the mean lean mass of each group into its mean daily food consumption value at the initial and then the final body scans.

[2] = system: Labrador Retrievers; assay: Oxygen consumption on treadmill (Oxymax open-circuit calorimeter), Example 2 part three; format: in vivo, dog
Procedure: Sixteen Labrador Retrievers ranging in age from 1.5 to 3 years were fed low carnitine basal diets with and without added L-carnitine for a 37 week period that included part one and two of the study. Eight (4 male and 4 female) of the test L-carnitine dogs were each fed 3.75 g sugar and 250 mg of L-carnitine, while the other eight dogs (4 male and 4 female) were fed only 4 g of sugar each day for the experimental period. The sixteen test dogs were fed the same diet for parts one, two, and three of the study. During part three of the study, the 16 test dogs were exclusively exercised on the industry sized canine treadmill. Initial Oxymax data was developed for each of the test dogs at various times and speeds in order to determine appropriate speeds on the treadmill required to achieve maximum VO2 concentration. The dogs were run for 15 minutes at 6.5 mph to determine VO2 max. The 16 test dogs were then ran at 50% VO2 max (equivalent to 4 mph) on the treadmill for 30 minutes to determine total energy expenditure (heat production). The system used to acquire information on volume of oxygen consumption and energy expenditure was an Open-Circuit calorimeter, which employed air from the surrounding environment. A mask specially designed for dogs was used to recover the gas sample and ventilate the dog. A small sample was drawn for gas analysis and dried to assure that the readings were made in a sample that was not under the influence of water vapor air exiting the chamber. The O2 and CO2 sensors were connected to software, and instant values of O2 and CO2 were measured. The 16 test dogs (8 L-carnitine dogs, 4 male and 4 female, and 8 control dogs, 4 male and 4 female) were exercised at a warm up speed of 2 mph for 5 minutes prior to running at VO2 max for 15 minutes at 6.5 mph. The next week, the test dogs ran again at a warm up speed of 2 mph for 5 minutes and then at 50% VO2 max for 30 minutes at 4 mph. The statistical analysis for gas exchange was analyzed by a factorial design 2×2 (2 genders and 2 diet treatments) and 2×2×2 (2 genders, 2 diets, 2 speeds) at p-value<0.05. The variable maximum oxygen consumption (Max VO2) was the highest amount of oxygen consumption during the exercise time. The mean oxygen consumption (Mean VO2) was the average amount of oxygen consumption during the exercise time. Oxygen consumption was reported on a per L/kg BW/h basis.

[3] = Ex.2 part one, 250 mg/d, 14 week study
[4] = Ex.2 part one, 250 mg/d, week 1
[5] = Ex.2 part three, 250 mg/d, females, 6.5 mph for 15 min (VO2 max)
[6] = Ex.2 part three, 250 mg/d, females, 50% VO2 max (4 mph, 30 min)
[7] = Ex.2 part three, 250 mg/d, females, average of combined speeds (4 mph and 6.5 mph)
[8] = combined speeds 4.0 and 6.5 (50% VO2 Max and VO2 Max), diet main effect, both genders
[9] = combined speeds 4.0 and 6.5 (50% VO2 Max and VO2 Max), female dogs
[10] = combined speeds 4.0 and 6.5 (50% VO2 Max and VO2 Max), male dogs
[11] = treadmill speed 4 for 30 min (50% VO2 Max), diet main effect, both genders
[12] = treadmill speed 4 for 30 min (50% VO2 Max), female dogs
[13] = treadmill speed 4 for 30 min (50% VO2 Max), male dogs
[14] = treadmill speed 6.5 for 15 min (VO2 Max), diet main effect, both genders
[15] = treadmill speed 6.5 for 15 min (VO2 Max), female dogs
[16] = treadmill speed 6.5 for 15 min (VO2 Max), male dogs

C[N+](C)(C)C[C@H](O)CC(=O)[O-] [L-carnitine]
Mean Food Intake Over 14 wk Duration/Lean Mass ([1]; Change, F): −2.46 g/d/kg Lean Mass | Mean Food Intake Over 14 wk Duration/Lean Mass ([1]; Change, M): −1.98 g/d/kg Lean Mass | Overall mean amount of food offered per day [1, 3]: 677 g/day | Overall mean food intake per day [1, 3]: 574 g/day | Mean food intake per kg lean mass ([1]; Ex.2 part one, 250 mg/d, Final body composition scan): 24.02 g/d/kg LM | Mean food intake per kg lean mass ([1]; Ex.2 part one, 250 mg/d, Initial body composition scan): 26.24 g/d/kg LM | Change in mean food intake per kg lean mass ([1]; Ex.2 part one, 250 mg/d, final minus initial over 14 wks): −2.22 g/d/kg LM | Amount of food consumed [1, 4]: 618.25 g/day | Food consumption per kg body weight [1, 4]: 20.96 g/d/kg BW | Intake of kcals of ME [1, 4]: 83.83 kcal/d/kg BW | Amount of food consumed ([1]; Ex.2 part one, 250 mg/d, week 4): 629.43 g/day | Mean Food Intake Over 14 wk Duration/Lean Mass ([1]; Final, F): 27.46 g/d/kg Lean Mass | Mean Food Intake Over 14 wk Duration/Lean Mass ([1]; Final, M): 20.58 g/d/kg Lean Mass | Mean Food Intake Over 14 wk Duration/Lean Mass ([1]; Initial, F): 29.92 g/d/kg Lean Mass | Mean Food Intake Over 14 wk Duration/Lean Mass ([1]; Initial, M): 22.56 g/d/kg Lean Mass | Daily Food Intake ([1]; Week 1): 618.25 ± 22.33 g | Daily Food Intake (ME) ([1]; Week 1): 83.83 ± 1.85 kcal ME/d/kg BW | Daily Food Intake per kg BW ([1]; Week 1): 20.96 ± 0.46 g/d/kg BW | Daily Food Intake ([1]; Week 2): 608.79 ± 22.8 g | Daily Food Intake (ME) ([1]; Week 2): 85.21 ± 2.22 kcal ME/d/kg BW | Daily Food Intake per kg BW ([1]; Week 2): 21.3 ± 0.55 g/d/kg BW | Daily Food Intake ([1]; Week 3): 600.54 ± 19.89 g | Daily Food Intake (ME) ([1]; Week 3): 82.87 ± 2.34 kcal ME/d/kg BW | Daily Food Intake per kg BW ([1]; Week 3): 20.72 ± 0.58 g/d/kg BW | Daily Food Intake ([1]; Week 4): 629.43 ± 21.4 g | Daily Food Intake (ME) ([1]; Week 4): 86.54 ± 2.08 kcal ME/d/kg BW | Daily Food Intake per kg BW ([1]; Week 4): 21.64 ± 0.52 g/d/kg BW | Daily Food Intake ([1]; Week 5): 597.07 ± 18.65 g | Daily Food Intake (ME) ([1]; Week 5): 81.86 ± 1.82 kcal ME/d/kg BW | Daily Food Intake per kg BW ([1]; Week 5): 20.47 ± 0.45 g/d/kg BW | Daily Food Intake ([1]; Week 6): 579.11 ± 21.17 g | Daily Food Intake (ME) ([1]; Week 6): 78.87 ± 2.06 kcal ME/d/kg BW | Daily Food Intake per kg BW ([1]; Week 6): 19.72 ± 0.51 g/d/kg BW | Daily Food Intake ([1]; Week 7): 584.5 ± 18.91 g | Daily Food Intake (ME) ([1]; Week 7): 79.61 ± 1.97 kcal ME/d/kg BW | Daily Food Intake per kg BW ([1]; Week 7): 19.91 ± 0.49 g/d/kg BW | Daily Food Intake ([1]; Week 8): 547.14 ± 20.91 g | Daily Food Intake (ME) ([1]; Week 8): 74.21 ± 2.16 kcal ME/d/kg BW | Daily Food Intake per kg BW ([1]; Week 8): 18.55 ± 0.54 g/d/kg BW | Daily Food Intake ([1]; Week 9): 602.79 ± 23.4 g | Daily Food Intake (ME) ([1]; Week 9): 81.55 ± 2.2 kcal ME/d/kg BW | Daily Food Intake per kg BW ([1]; Week 9): 20.39 ± 0.55 g/d/kg BW | Daily Food Intake ([1]; Week 10): 580.04 ± 21.88 g | Daily Food Intake (ME) ([1]; Week 10): 78.76 ± 2.25 kcal ME/d/kg BW | Daily Food Intake per kg BW ([1]; Week 10): 19.69 ± 0.56 g/d/kg BW | Daily Food Intake ([1]; Week 11): 543.89 ± 19.79 g | Daily Food Intake (ME) ([1]; Week 11): 73.79 ± 2.09 kcal ME/d/kg BW | Daily Food Intake per kg BW ([1]; Week 11): 18.45 ± 0.52 g/d/kg BW | Daily Food Intake ([1]; Week 12): 493.68 ± 19.06 g | Daily Food Intake (ME) ([1]; Week 12): 66.64 ± 1.71 kcal ME/d/kg BW | Daily Food Intake per kg BW ([1]; Week 12): 16.66 ± 0.43 g/d/kg BW | Daily Food Intake ([1]; Week 13): 511.82 ± 22.64 g | Daily Food Intake (ME) ([1]; Week 13): 68.71 ± 2.06 kcal ME/d/kg BW | Daily Food Intake per kg BW ([1]; Week 13): 17.18 ± 0.51 g/d/kg BW | Daily Food Intake ([1]; Week 14): 543.5 ± 26.43 g | Daily Food Intake (ME) ([1]; Week 14): 73.21 ± 2.75 kcal ME/d/kg BW | Daily Food Intake per kg BW ([1]; Week 14): 18.3 ± 0.69 g/d/kg BW | Max VO2 consumption [2, 5]: 60.8 mL/min/kg | Mean VO2 [2, 5]: 3.11 L/kg/h | Max VO2 consumption [2, 6]: 42 mL/min/kg | Mean VO2 [2, 6]: 1.99 L/kg/h | Maximum VO2 consumption [2, 7]: 50.3 mL/min/kg | Mean VO2 consumption [2, 7]: 41.7 mL/min/kg | Max VO2 [2, 8]: 2.80 L/kg/h | Mean VO2 [2, 8]: 2.40 L/kg/h | Max VO2 [2, 9]: 3.02 a L/Kg/h | Mean VO2 [2, 9]: 2.50 a L/Kg/h | Max VO2 [2, 10]: 2.57 ab L/Kg/h | Mean VO2 [2, 10]: 2.31 ab L/Kg/h | Max VO2 [2, 11]: 2.39 L/kg/h | Mean VO2 [2, 11]: 1.98 L/kg/h | Max VO2 [2, 12]: 2.52 L/kg/h | Mean VO2 [2, 12]: 1.99 L/kg/h | Max VO2 [2, 13]: 2.26 L/kg/h | Mean VO2 [2, 13]: 1.97 L/kg/h | Max VO2 [2, 14]: 3.27 L/kg/h | Mean VO2 [2, 14]: 2.89 L/kg/h | Max VO2 [2, 15]: 3.65 L/kg/h | Mean VO2 [2, 15]: 3.11 L/kg/h | Max VO2 [2, 16]: 2.89 L/kg/h | Mean VO2 [2, 16]: 2.66 L/kg/h
